Experiments:
human TAAR1 = target: T1, human TAAR1 (Homo sapiens, UniProt Q96RJ0); assay: cAMP assay, functional agonist activity at human TAAR1; type: cell-based
T1 construct: expressed in transfected cells; host or cells: cAMP Hunter CHO-K1 AGTRL1 Gi cells
T1 sequence (Q96RJ0 1-339): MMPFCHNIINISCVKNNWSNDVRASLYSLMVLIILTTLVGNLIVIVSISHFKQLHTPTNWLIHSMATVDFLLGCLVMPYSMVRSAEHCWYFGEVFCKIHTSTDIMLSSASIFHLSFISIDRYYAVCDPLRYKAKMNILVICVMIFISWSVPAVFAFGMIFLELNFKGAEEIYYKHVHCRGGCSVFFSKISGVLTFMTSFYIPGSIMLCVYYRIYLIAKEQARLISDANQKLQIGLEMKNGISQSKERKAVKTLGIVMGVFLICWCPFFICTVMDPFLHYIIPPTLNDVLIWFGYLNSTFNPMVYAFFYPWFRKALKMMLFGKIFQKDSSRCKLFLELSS
Description: Cells were seeded in a total volume of 20 µL into white-walled, 384-well microplates, followed by incubation at 37°C for the appropriate time before testing. Different concentrations of compounds were added to cells, and incubation was undertaken at 37°C for 10 min, with p-tyramine used as the MAX control. cAMP modulation was determined using the DiscoverX HitHunter cAMP XS + assay. Percentage activity was calculated using the following equation: Activity %=mean RLUtest sample – mean RLUvehicle control/mean RLUMAX control – mean RLUvehicle control×100%.

[1] = tested on: MK801-induced schizophrenia-like behavior; assay: MK801-induced schizophrenia-like behavior (open field, distance traveled); type: in vivo, C57BI/6J mice
Description: Ninety-nine male C57BI/6J mice were divided randomly into 11 groups. Mice were placed in a room 1 h before testing. They were administered (p.o.) vehicle (0.1 ml/10 g), 50A (0.3, 1, 3, and 10 mg/kg; 0.1 ml/10 g), or 50B (0.3, 1, 3, and 10 mg/kg; 0.1 ml/10 g). […] Then, mice were administered (i.p.) MK801 (0.8 mg/kg dissolved in physiologic saline; 0.1 ml/10 g). After 30 min, the distance that mice traveled was measured.
Forty-six male C57BI/6J mice were divided randomly into four groups. The CN group contained four mice. […] The administration method described previously was employed.

catalepsy = assay: Catalepsy assay (bar test); type: in vivo, C57BI/6J mice; settings: 100 mg/kg p.o., 30 and 90 min after administration
Description: Twenty-four male C57BI/6J mice were divided randomly into four groups. Mice were placed in a room 1 h before testing. […] The front paws of mice were placed on a horizontal metal bar raised 2 inches above a Plexiglas™ platform 30 min and 90 min after administration. The time the front paws of mice were placed on the platform was recorded at ≤30 s per trial. Each test was repeated three times.

`c1csc([C@H]2CNCCO2)c1` [Compound 50A] was tested, and the EC50 (human TAAR1) was 6.25 µM, the Emax (human TAAR1; cAMP modulation, p-tyramine as MAX control, read-out: TAAR1 Agonist % Emax) was 64% and the “Inhibition of MK801-induced schizophrenia-like behavior (effective doses)” value ([1]; mice, single oral dose 0.3, 1, 3 and 10 mg/kg, MK801 0.8 mg/kg i.p.) was “only at 1 mg/kg”. For the same compound, the “Distance moved by mice in the presence or absence of MK801” value ([1]; single oral dose 0.3, 1, 3 and 10 mg/kg) was “significantly reduced the distance moved by mice” and the “Time mice spent holding bars (catalepsy)” value (catalepsy) was “did not increase this time”.

For `O=C1CCc2ccc(OCCCCN3CCN(c4cccc(Cl)c4Cl)CC3)cc2N1` [aripiprazole, reference compound], the MK801-induced schizophrenia-like behavior ([1]; mice, aripiprazole 5 mg/kg p.o., MK801 0.8 mg/kg i.p.) was “significantly reduced”.

For `Cc1nc2n(c(=O)c1CCN1CCC(c3noc4cc(F)ccc34)CC1)CCCC2` [risperidone, reference compound], the MK801-induced schizophrenia-like behavior ([1]; mice, risperidone 0.1 mg/kg p.o., MK801 0.8 mg/kg i.p.) was “significantly reduced”.

Source: paper PMC10160475, “Biological evaluation and in silico studies of novel compounds as potent TAAR1 agonists that could be used in schizophrenia treatment” (Frontiers in Pharmacology, 2023)
